Values joined by “and” are separate entries in the source; they are usually repeats but may differ in a detail not shown here. Identical values can stand only once. Toxic doses and inconclusive results are not listed. Cut-off read from the data, not from the text of the source: active = T/C of 150% or more; inactive = T/C below 125%.
Test system: L1210 leukemia ip in BDF1 mice, survival T/C
Test: NCI In Vivo Anticancer Drug Screen. Data for tumor model L1210 Leukemia (intraperitoneal) in B6D2F1 (BDF1) mice
Conditions: endpoint: mean survival time, higher = longer survival
Summary of the method: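 Antitumor effect is assessed in tumor-bearing animals. Survival in the compound arm is compared with a vehicle-dosed control arm and expressed as their quotient.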

[1] = dose: 100.0 mg/kg/injection, schedule: Q01DX001 (ip), vehicle: saline
[2] = dose: 200.0 mg/kg/injection, schedule: Q01DX001 (ip), vehicle: saline
[3] = dose: 400.0 mg/kg/injection, schedule: Q01DX001 (ip), vehicle: saline
[4] = dose: 100.0 mg/kg/injection, schedule: Q01DX009 (ip), vehicle: saline with Tween-80
[5] = dose: 100.0 mg/kg/injection, schedule: Q04DX003 (ip), vehicle: saline with Tween-80
[6] = dose: 200.0 mg/kg/injection, schedule: Q01DX009 (ip), vehicle: saline with Tween-80
[7] = dose: 200.0 mg/kg/injection, schedule: Q04DX003 (ip), vehicle: saline with Tween-80
[8] = dose: 400.0 mg/kg/injection, schedule: Q04DX003 (ip), vehicle: saline with Tween-80
[9] = dose: 100.0 mg/kg/injection, schedule: Q04DX003 (ip), vehicle: Klucel (hydroxypropylcellulose) (HPC)
[10] = dose: 200.0 mg/kg/injection, schedule: Q04DX003 (ip), vehicle: Klucel (hydroxypropylcellulose) (HPC)
[11] = dose: 400.0 mg/kg/injection, schedule: Q04DX003 (ip), vehicle: Klucel (hydroxypropylcellulose) (HPC)
[12] = dose: 100.0 mg/kg/injection, schedule: Q04DX003 (ip), vehicle: saline
[13] = dose: 200.0 mg/kg/injection, schedule: Q04DX003 (ip), vehicle: saline
[14] = dose: 400.0 mg/kg/injection, schedule: Q04DX003 (ip), vehicle: saline
[15] = dose: 100.0 mg/kg/injection, schedule: Q01DX009 (ip), vehicle: saline
[16] = dose: 200.0 mg/kg/injection, schedule: Q01DX009 (ip), vehicle: saline
[17] = dose: 400.0 mg/kg/injection, schedule: Q01DX009 (ip), vehicle: saline

Measured: T/C

NC(=O)C1=CNCCC1
inactive: dose: 6.25 mg/kg/injection, schedule: Q01DX001 (ip), vehicle: saline 98 % of control | dose: 12.5 mg/kg/injection, schedule: Q01DX001 (ip), vehicle: saline 104 % of control | dose: 25.0 mg/kg/injection, schedule: Q01DX001 (ip), vehicle: saline 101 % of control | dose: 50.0 mg/kg/injection, schedule: Q01DX001 (ip), vehicle: saline 93 % of control and 118 % of control | [1] 114 % of control | [2] 109 % of control | [3] 118 % of control

CCC(C(=O)NC(=O)NO)c1ccccc1 (stereo not drawn)
inactive: dose: 100.0 mg/kg/injection, schedule: Q01DX Z (ip), vehicle: carboxymethylcellulose (CMC) 94 % of control | dose: 300.0 mg/kg/injection, schedule: Q01DX Z (ip), vehicle: carboxymethylcellulose (CMC) 105 % of control | dose: 400.0 mg/kg/injection, schedule: Q01DX Z (ip), vehicle: carboxymethylcellulose (CMC) 90 % of control

Cc1cc(-c2ccc(NC(=O)N(C)C)c(C)c2)ccc1NC(=O)N(C)C
inactive: dose: 100.0 mg/kg/injection, schedule: Q04DX002 (ip), vehicle: saline with Tween-80 100 % of control | dose: 200.0 mg/kg/injection, schedule: Q04DX002 (ip), vehicle: saline with Tween-80 114 % of control | dose: 400.0 mg/kg/injection, schedule: Q04DX002 (ip), vehicle: saline with Tween-80 96 % of control

COc1ccccc1NC(=O)Nc1ccc(N(C)C)cc1
inactive: [4] 91 % of control | [5] 86 % of control | [6] 96 % of control | [7] 94 % of control | dose: 400.0 mg/kg/injection, schedule: Q01DX009 (ip), vehicle: saline with Tween-80 102 % of control | [8] 95 % of control

COC(=O)CCC(=O)c1cccc(C)c1
inactive: [5] 88 % of control | [7] 99 % of control | [8] 94 % of control

C/C(=N\N=C(/C)c1cccc(Br)c1)c1cccc(Br)c1
inactive: [9] 92 % of control | [10] 90 % of control | [11] 95 % of control

COC(=O)[C@H]1[C@H]2C[C@@H]3c4[nH]c5cc(OC)ccc5c4CCN3C[C@H]2C[C@@H](OC(=O)c2cccc(N(C)C)c2)[C@@H]1OC
inactive: dose: 0.78 mg/kg/injection, schedule: Q01DX009 (ip), vehicle: Klucel (hydroxypropylcellulose) (HPC) 102 % of control | dose: 0.78 mg/kg/injection, schedule: Q04DX003 (ip), vehicle: Klucel (hydroxypropylcellulose) (HPC) 94 % of control | dose: 1.56 mg/kg/injection, schedule: Q01DX009 (ip), vehicle: Klucel (hydroxypropylcellulose) (HPC) 102 % of control | dose: 1.56 mg/kg/injection, schedule: Q04DX003 (ip), vehicle: Klucel (hydroxypropylcellulose) (HPC) 107 % of control | dose: 3.12 mg/kg/injection, schedule: Q01DX009 (ip), vehicle: Klucel (hydroxypropylcellulose) (HPC) 96 % of control | dose: 3.12 mg/kg/injection, schedule: Q04DX003 (ip), vehicle: Klucel (hydroxypropylcellulose) (HPC) 104 % of control | dose: 6.25 mg/kg/injection, schedule: Q01DX009 (ip), vehicle: Klucel (hydroxypropylcellulose) (HPC) 93 % of control | dose: 6.25 mg/kg/injection, schedule: Q04DX003 (ip), vehicle: Klucel (hydroxypropylcellulose) (HPC) 104 % of control | dose: 12.5 mg/kg/injection, schedule: Q04DX003 (ip), vehicle: Klucel (hydroxypropylcellulose) (HPC) 100 % of control

O=C(CCCCC(=O)Nc1cc(C(=O)Nc2ccc(C3=NCCN3)cc2)ccc1C(=O)Nc1ccc(C2=NCCN2)cc1)Nc1cc(C(=O)Nc2ccc(C3=NCCN3)cc2)ccc1C(=O)Nc1ccc(C2=NCCN2)cc1
inactive: dose: 1.25 mg/kg/injection, schedule: Q01DX Z (ip), vehicle: saline 90 % of control | dose: 2.5 mg/kg/injection, schedule: Q01DX Z (ip), vehicle: saline 95 % of control | dose: 5.0 mg/kg/injection, schedule: Q01DX Z (ip), vehicle: saline 88 % of control | dose: 10.0 mg/kg/injection, schedule: Q01DX Z (ip), vehicle: saline 101 % of control | dose: 15.0 mg/kg/injection, schedule: Q01DX Z (ip), vehicle: methylcellulose (MC) 103 % of control | dose: 30.0 mg/kg/injection, schedule: Q01DX Z (ip), vehicle: methylcellulose (MC) 110 % of control

O=C(NCCCl)NC1CCC(O)CC1 (stereo not drawn)
inactive: [12] 107 % of control | [13] 100 % of control | [14] 100 % of control

c1ccc(N2CCN(c3ccccn3)CC2)nc1
inactive: dose: 50.0 mg/kg/injection, schedule: Q01DX009 (ip), vehicle: saline with Tween-80 92 % of control | [4] 99 % of control | [6] 89 % of control

CC1(c2cccs2)C(=O)NC(=O)N1C(=O)CCl (stereo not drawn)
inactive: [4] 109 % of control | [5] 103 % of control | [6] 106 % of control | [7] 99 % of control

O=S1(=O)CCC(O)C1 (stereo not drawn)
inactive: [1] 92 % of control | [15] 93 % of control | [2] 97 % of control | [16] 105 % of control | [3] 100 % of control | [17] 100 % of control

O=S(=O)(OCC1CO1)c1ccc(F)cc1 (stereo not drawn)
inactive: dose: 100.0 mg/kg/injection, schedule: Q01DX007 (ip), vehicle: Klucel (hydroxypropylcellulose) (HPC) 103 % of control | [9] 95 % of control | dose: 200.0 mg/kg/injection, schedule: Q01DX007 (ip), vehicle: Klucel (hydroxypropylcellulose) (HPC) 114 % of control | [10] 104 % of control | dose: 400.0 mg/kg/injection, schedule: Q01DX007 (ip), vehicle: Klucel (hydroxypropylcellulose) (HPC) 103 % of control | [11] 98 % of control

C[n+]1ccsn1
inactive: dose: 100.0 mg/kg/injection, schedule: Q01DX001 (ip), vehicle: carboxymethylcellulose (CMC) 95 % of control | dose: 200.0 mg/kg/injection, schedule: Q01DX001 (ip), vehicle: carboxymethylcellulose (CMC) 93 % of control | dose: 400.0 mg/kg/injection, schedule: Q01DX001 (ip), vehicle: carboxymethylcellulose (CMC) 95 % of control

CSC(=N)N
inactive: [1] 105 % of control | [15] 99 % of control | dose: 100.0 mg/kg/injection, schedule: Q04DX002 (ip), vehicle: saline 100 % of control | [12] 101 % of control | [2] 96 % of control | [16] 91 % of control | dose: 200.0 mg/kg/injection, schedule: Q04DX002 (ip), vehicle: saline 100 % of control | [13] 97 % of control | [17] 89 % of control | [14] 97 % of control

CC1CCC2(C)CCC3(C)C4=CCC5C(C)(C)C(O)CCC5(C)C4CCC3(C)C2C1C (stereo not drawn)
inactive: [16] 87 % of control | [17] 96 % of control

C1CCC2C(C1)CCC1OC12 (stereo not drawn)
inactive: [15] 112 % of control | [16] 102 % of control | [17] 107 % of control

CC(C)=NOC(=O)N(C)C
inactive: [1] 93 % of control | [2] 96 % of control | [3] 91 % of control
